Test results from US20260345654A1, “2,8-DIHYDROXYQUINOLINE GLUCURONIDE DERIVATIVES WITH ENHANCED PROPERTIES FOR USE AS ANTICANCER, ANTIVIRAL, ANTIMICROBIAL, AND OTHER THERAPEUTIC APPLICATIONS” (priority 2023, published 2026).
Like-named read-outs stand apart in the source and are kept apart here.

Assays:
BT-549 cells = experiment: In vitro anti-proliferation (CellTiter-Glo, 72 hr), BT-549; type: cell-based
Method: (§1) Commercially available 8HQ and freshly synthesized G2-8HQ were prepared for in vitro anti-proliferative studies against the following cell lines with and without the presence of 10 μM Cu(+2): (1) A549: […]; (2) BT-549: epithelial cells from ductal tumor; (3) DU-145: human prostate cancer; (4) PANC-1: pancreatic cancer; (5) SU.86.86: a new adoptive pancreatic cell for immunotherapy studies; (6) RL: non-Hodgkin's lymphoma; (7) LnCAP, Prostate cancer cell line; (8) A431, a squamous cell carcinoma line; and (9) UACC-62 a malignant melanoma cell line.
(§2) With regard to the study protocol used, the objective was to conduct a study of the cytotoxicity of W1469 against several cancer cell lines. In the study protocol, preparations for the A549 (Lung) cell line screen are given as an example. The following materials were used: (1) FBS (2) RPMI-1640 medium supplemented with 10% FBS:’ and (3) A549 Cells. The four samples tested are referred to as Items 1-4 below and were placed at 4 °C upon arrival. These four samples were as follows: • Item 1: Tube A (W1469) (500 uM when FBS added) • Item 2: Tube B (W1469g) (1000 uM when FBS added) • Item 3: Tube C (W1469) • Item 4: Tube D (W1469g)
(§3) Add 50 μL of above 2× stocks to appropriate wells to expose appropriate cells to the final dilutions of samples. Add 50 μL media to media and cell control wells and 50 μL media mix to vehicle control wells. Cells are exposed for 72 hr. Following a 72 hr exposure to Sample, perform a CTG assay on all remaining plates.
(§4) At the end of the 72 hr exposure period, remove plates for CellTiter-Glo assay from 37 °C, 5% CO2 incubator and place on the bench at room temperature for 30 mins. Add 100 μL CellTiter-Glo reagent, mix for 2 mins, followed by a further 10 min incubation at room temperature. Record luminescence. Tables showing the resulting plate layouts are included below/

UACC-62 cells = experiment: In vitro anti-proliferation (CellTiter-Glo, 72 hr), UACC-62; type: cell-based
Method: as §1, §2, §3, §4
The other cancer cell lines tested gave similar results. […] Three additional cell lines were also studied and described more completely in Example 9 provided herein. These cell lines included cytotoxicity testing of WT1469 (G2-8HQ) against LnCAP a prostate cancer, A431 a squamous carcinoma cell line and UACC-62 a malignant melanoma cell line. All were complexed in situ with copper immediately prior to testing. The results from these additional cell lines and incorporated in Table 2 and Example 9.

Complexation of copper = type: physicochemical
basal cell carcinoma = experiment: Single patient clinical study, topical W1469, basal cell carcinoma; type: in vivo, human
Text: • Indication: Basil Cell Carcinoma • Rationale: Basil Cell Carcinoma is the most common form of skin cancer with 3.6 Million cases diagnosed each year and rising. It is estimated that 80% of all newly diagnosed skin cancers are BCC. Although rarely fatal, it can be painful and disfiguring and, in some cases, become dangerously invasive. The most common forms of treatment include surgery, radiation treatment, immunotherapy, systemic and topical chemotherapy, and other variations including laser therapy. The currently approved topical treatments for BCC are usually only recommended for more superficial tumors and more extensive monitoring is required because they are generally not effective in destroying cancer cell deeper below the surface. A more complete description of treatment options and their relative effectiveness has been described by the American Cancer Society. […] And if necessary, on a continuing ongoing basis.
The examined treatment approach studied here falls in the category of a topical chemotherapeutic. W1469 is a novel small molecule anti-cancer drug candidate which contains a tumor targeting functional group and has been shown effective against a variety of cancers in vitro. (most recently including squamous cell carcinoma)
(§5) Topical gel containing 0.5 mg/ml W1469 in proprietary aqueous alcohol gel, applied initially once daily using a suitable topical applicator.
(§6) In general, the Treatment/Patient protocol used for the patient testing was as follows: • 1. Photograph the application site prior to starting the protocol. Note any changes in lesion size, color, etc. of treatment area. • 2. Remove a loaded syringe from the freezer, dry ice or refrigerator and allow to gradually warm to room temperature. • 3. Photograph the syringe each time prior to application. Note the color of the gel contained in the syringe. • 4. Lightly clean the skin surface with alcohol wipe. • 5. […] Let the liquid from the gel absorb into the site without disturbing. Apply once a day at the same time. • 6. Re-cap the syringe and store in the refrigerator until completely used. • 7. Repeat 1-6 each daily during application period. It is noted in this protocol that photographing the syringe used with each application period accomplishes two things.
• 1. Toleration/toxicity • 2. Application methodology • 3. Any visual indications of efficacy • 4. Patient feedback Study Duration: Varied case by case. Generally, two weeks to two months
A person with extensive basil cell carcinoma lesions on both sides of the face, forehead and ear. Note: the clinical study involving Individual 1, due to limitations in available material, at the time was performed with very low concentrations of W1469 and the patient was instructed to use only on the nose area and under the area of the left cheek. The treatment was thus self-administered. A photo of the individual before treatment is included in FIG. 23. Patient condition was monitored and photographed regularly during the treatment period.
Self-administered, variable treatment protocol, drug concentrations and vehicle carrier. […] The lesion was tender to palpation especially to the center and the area around the lesion was with hyperpigmentation. […] No necrotic or hyperkeratotic areas were noted. […] Therapy was reintroduced on a three times-daily dosing schedule and with ethanol-based carrier molecule. […] The centralized portion of the lesion slowly healed over the next 5-day period. Continued healing of the centralized portion of the lesion during the 5-day period status post central necrotic tissue extrusion was shown. During this period the lesion began to flatten, the area became pain free, and localized tissue became less erythematic. A bloody clot in central area resolved and crater size decreased.

[1] = system: ulcerative lesion to mid forehead; experiment: Case study, topical W1469, ulcerative lesion (Individual 3); type: in vivo, human; conditions: Individual 3, twice daily, after one week
Method: as §5, §6
Physician administered, variable treatment protocol, drug concentrations and vehicle carrier. A person with ulcerative lesion to mid forehead approximately 3 mm×4 mm. […]. Non painful and without exudate. Therapy applied on a twice daily dosing schedule.

[2] = Individual 1, three week period, topical
[3] = Individual 2, after first week of treatment

Compound: O=C(O)[C@H]1O[C@@H](Oc2ccc3cccc(O)c3n2)[C@H](O)[C@@H](O)[C@@H]1O [G2-8HQ, 8-Hydroxy-2-quinolinyl beta-D-glucopyranosiduronic acid]
- cytotoxicity (BT-549 cells; 1 and 0.5 μM, presence of Cu^+2 ions, wide standard deviation): in some percentage of the screens all the cancer cells were killed at these concentrations
- IC50 (BT-549 cells; +Cu (10 μM), 72 hr, G2-8HQ values based on MW of apo form (337), read-out: IC50): 8.6 µM
- IC50 (BT-549 cells; Homo sapiens, BT-549, 72 h, +Cu (10 μM), 72 hr, G2-8HQ values based on MW of apo form (337), read-out: IC50): 5.6 µM
- IC50 (BT-549 cells; Homo sapiens, BT-549, 72 h, −Cu, 72 hr, read-out: IC50): > 500 µM
- IC50 (BT-549 cells; Homo sapiens, BT-549, complexed with Cu, multiplied by 337/776=0.43, column 3 duplicate of column 2, read-out: IC50 (adjusted to MW of copper complex)): 2.4 µM
- IC50 (BT-549 cells; complexed with Cu, multiplied by 337/776=0.43, column 3 duplicate of column 2, listed as W1469, read-out: IC50 (adjusted to MW of copper complex)): 3.7 µM
- IC50 (UACC-62 cells; +Cu, complexed in situ with copper immediately prior to testing, not based on apo MW, read-out: IC50): 170 µM
- IC50 (UACC-62 cells; Homo sapiens, UACC-62, +Cu, complexed in situ with copper immediately prior to testing, not based on apo MW, read-out: IC50): 154 µM
- IC50 (UACC-62 cells; Homo sapiens, UACC-62, complexed with Cu in situ, * differences with or without excipient, suboptimal complexing, read-out: IC50 (adjusted to MW of copper complex)): 152 µM
- IC50 (UACC-62 cells; complexed with Cu in situ, * differences with or without excipient, suboptimal complexing, listed as W1469, read-out: IC50 (adjusted to MW of copper complex)): 167 µM
- Complexes w/copper (Complexation of copper; comparison Table 5): Yes
- copper complexation (Complexation of copper; water or PBS (at neutral pH), without suitable excipient): will not readily complex Cu^+2
- patient's condition (basal cell carcinoma; [2]): significant amelioration of the patient's condition
- scarring or other disfigurement (basal cell carcinoma; [2]): did not result in scarring or other disfigurement
- patient's condition (basal cell carcinoma; Individual 2, after 7 days of treatment (FIG. 26)): significant amelioration of the patient's condition
- hyperpigmentation (basal cell carcinoma; [3]): hyperpigmentation is markedly reduced
- lesion response (basal cell carcinoma; [3]): marked improvement in the lesion was obtained with almost complete resolution
- pain (basal cell carcinoma; [3]): Area is pain free
- recurrence (basal cell carcinoma; Individual 2, one month following the treatment): another lesion returned to the patient's right cheek
- lesion hyperkeratosis (basal cell carcinoma; Individual 2, second lesion): marked reduction in lesion hyperkeratosis
- centralized necrotic core (basal cell carcinoma; Individual 2, second lesion, after two days): the centralized necrotic core came out of the lesion
- lesion size (basal cell carcinoma; Individual 2, second lesion, three times daily, ethanol-based carrier): lesion size markedly decreased
- erythema, exudate, or hyperkeratosis [1]: No erythema, exudate, or hyperkeratosis noted
- ulcerative lesion [1]: resolution of ulcerative lesion
